Structures can show the parent of a compound that is named as a salt. Where two headings read alike, the source gives them in different places.
Tests used:
HCT-116 cell line = assay: Inhibition of cell growth, tetrazolium salt (MTT) assay; type: cell-based; conditions: for IC50: Homo sapiens, HCT-116, 120 h, MTT, three to five days, read-out: HCT-116 IC50; for HCT-116 % Inhibition at 0.1 μM / HCT-116 5 Inhibition at 0.25 μM: HCT-116 cells; for HCT-116 % Inhibition at 0.25 μM: 0.25 μM compound, Table 2
Summary of the method: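 McCoy's 5A cultures; 4 h pre-incubation; compound dilutions in 0.5% v/v DMSO; 3–5 d, 37° C, 5% CO2; MTT 0.2 mg/mL final, 4 h; formazan dissolved in DMSO, A540; vs 0.5% DMSO vehicle.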

CDK2/Cyclin A = CDK2/Cyclin A (Homo sapiens, UniProt P24941); assay: Inhibition of CDK2/Cyclin A Retinoblastoma Kinase Activity; type: biochemical; conditions: for Ki: apparent Ki, CDK2/proteolyzed cyclin A, Rb fragment substrate, 25 μM ATP; for CDK2 % Inhibition At 0.03 μM: 0.03 μM compound, Table 2
Summary of the method: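 Baculovirus-expressed CDK2 complexed with proteolyzed cyclin A (10 or 19 nM), Rb fragment substrate, 25 μM [32P/33P]ATP, HEPES pH 7.4, 30 °C for 60 or 75 min under initial-rate conditions. Filter capture and phosphorimager readout; apparent Ki fitted to competitive or tight-binding competitive inhibition.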

[1] = molecular target: human CDK4 and genetically truncated (1-264) cyclin D3 (Homo sapiens, UniProt P11802); assay: Inhibition of CDK4/Cyclin D Retinoblastoma Kinase Activity; type: biochemical; conditions: for Ki: apparent Ki, CDK4/truncated cyclin D3, Rb fragment substrate, 25 μM ATP
Sequence of human CDK4 and genetically truncated (1-264) cyclin D3 (P11802 whole entry, the tested form may be a part): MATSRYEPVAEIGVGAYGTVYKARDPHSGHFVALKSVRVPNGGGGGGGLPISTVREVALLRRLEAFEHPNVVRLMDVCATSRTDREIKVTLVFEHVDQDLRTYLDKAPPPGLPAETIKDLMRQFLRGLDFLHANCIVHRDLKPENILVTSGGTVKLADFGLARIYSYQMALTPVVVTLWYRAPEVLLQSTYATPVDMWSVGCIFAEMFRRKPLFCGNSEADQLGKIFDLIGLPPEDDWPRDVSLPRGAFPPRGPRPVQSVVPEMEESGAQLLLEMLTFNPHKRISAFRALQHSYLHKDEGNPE
Sequence of human CDK4 and genetically truncated (1-264) cyclin D3 (P30281 1-264 partner): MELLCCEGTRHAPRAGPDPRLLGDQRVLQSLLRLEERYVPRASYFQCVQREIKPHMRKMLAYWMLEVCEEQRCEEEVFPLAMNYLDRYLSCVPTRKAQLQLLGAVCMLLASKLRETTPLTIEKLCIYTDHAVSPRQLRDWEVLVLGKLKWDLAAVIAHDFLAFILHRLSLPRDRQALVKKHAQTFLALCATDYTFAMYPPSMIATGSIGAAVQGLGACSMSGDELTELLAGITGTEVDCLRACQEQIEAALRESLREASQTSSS
Summary of the method: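 Human CDK4/truncated cyclin D3 (1-264) complex from baculovirus-infected insect cells, 5 nM, phosphorylating Rb fragment (residues 386-928, His-tagged) with 25 μM [32/33P]ATP in HEPES pH 7.4, MgCl2, 2% DMSO at 30° C. for 20 min (60 min for tight binders). Filter-captured radioactivity by phosphorimager; apparent Ki from competitive or tight-binding fits.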

Compound	IC50 (HCT-116 cell line; first HCT-116 column (c4)) [nM]	IC50 (HCT-116 cell line; second HCT-116 column (c5)) [nM]	Ki (CDK2/Cyclin A) [nM]	Ki [1] [nM]	other results
C[C@@H](O)CN(C)c1ccc(S(=O)(=O)N2CCC(Nc3nc(N)c(C(=O)c4c(F)cccc4F)s3)CC2)cn1 [Example G17, 1-[4-Amino-2-(1-{6-[((R)-2-hydroxy-propyl)-methyl-amino]-pyridine-3-sulfonyl}-piperidine-4-ylamino)-thiazol-5-yl]-1-(2,6-difluoro-phenyl)-methanone Trifluoroacetic Acid Salt]	360	900	0.55	1.4	–
CC(C)S(=O)(=O)c1csc(C(=O)N2CCC(Nc3nc(N)c(C(=O)c4c(F)cccc4F)s3)CC2)c1Cl [Example R62]	–	–	–	–	HCT-116 % Inhibition at 0.1 μM (HCT-116 cell line): 0%; HCT-116 5 Inhibition at 0.25 μM (HCT-116 cell line): 38; CDK2 % Inhibition at 0.03 μM (CDK2/Cyclin A): 65%; CDK4 % Inhibition at 0.03 μM ([1]; at 0.03 μM): 78%
CN(C)c1ccc(C(=O)N2CCC(Nc3nc(N)c(C(=O)c4c(F)cccc4F)s3)CC2)cc1 [Example R79]	–	–	–	–	HCT-116 % Inhibition at 0.1 μM (HCT-116 cell line): 0%; HCT-116 5 Inhibition at 0.25 μM (HCT-116 cell line): 47; CDK2 % Inhibition at 0.03 μM (CDK2/Cyclin A): 14%; CDK4 % Inhibition at 0.03 μM ([1]; at 0.03 μM): 16%
CCOC(=O)C(Cc1ccccc1)NC(=O)N1CCC(Nc2nc(N)c(C(=O)c3c(F)cccc3F)s2)CC1 (centres unmarked) [Example O75]	–	–	–	–	HCT-116 % Inhibition at 0.25 μM (HCT-116 cell line): 41%; CDK2 % Inhibition At 0.03 μM (CDK2/Cyclin A): 25%; CDK4 % Inhibition at 0.03 μM ([1]; 0.03 μM compound, Table 2): 10%
COc1ccc(C(=O)N2CCC(Nc3nc(N)c(C(=O)c4c(F)cccc4F)s3)CC2)cc1 [Example C2, {4-Amino-2-[1-(4-methoxy-benzoyl)-piperidin-4-ylamino]-thiazol-5-yl}-(2,6-difluoro-phenyl)-methanone]	770	1900	65	9.6	–
COc1ccc(NC(=O)N2CCC(Nc3nc(N)c(C(=O)c4c(F)cccc4F)s3)CC2)c(OC)c1 [Example O8]	–	–	–	–	HCT-116 % Inhibition at 0.25 μM (HCT-116 cell line): 0%; CDK2 % Inhibition At 0.03 μM (CDK2/Cyclin A): 37%; CDK4 % Inhibition at 0.03 μM ([1]; 0.03 μM compound, Table 2): 15%
Nc1nc(NC2CCN(C(=O)Nc3ccccc3Cl)CC2)sc1C(=O)c1c(F)cccc1F [Example O6]	–	–	–	–	HCT-116 % Inhibition at 0.25 μM (HCT-116 cell line): 12%; CDK2 % Inhibition At 0.03 μM (CDK2/Cyclin A): 36%; CDK4 % Inhibition at 0.03 μM ([1]; 0.03 μM compound, Table 2): 10%
Nc1nc(NC2CCN(S(=O)(=O)CCn3cccc3)CC2)sc1C(=O)c1c(F)cccc1F [Example K34, {4-Amino-2-[1-(2-pyrrol-1-yl-ethanesulfonyl)-piperidin-4-ylamino]-thiazol-5-yl}-(2,6-difluoro-phenyl)-methanone Trifluoroacetic Acid Salt.]	280	1200	6	5.4	–
CC1(C(=O)N2CCC(Nc3nc(N)c(C(=O)c4c(F)cccc4F)s3)CC2)CCCCC1 [Example R99]	–	–	–	–	HCT-116 % Inhibition at 0.1 μM (HCT-116 cell line): 5%; HCT-116 5 Inhibition at 0.25 μM (HCT-116 cell line): 49; CDK2 % Inhibition at 0.03 μM (CDK2/Cyclin A): −5%; CDK4 % Inhibition at 0.03 μM ([1]; at 0.03 μM): −4%
CN(C)CCc1ccc(S(=O)(=O)N2CCC(Nc3nc(N)c(C(=O)c4c(F)cccc4F)s3)CC2)cn1 [Example N11, (4-Amino-2-{1-[6-(2-dimethylamino-ethyl)-pyridine-3-sulfonyl]-piperidin-4-ylamino}-thiazol-5-yl)-(2,6-difluoro-phenyl)-methanone TFA Salt.]	140	1600	1.6	0.39	–
Nc1nc(NC2CCN(C(=O)C3(c4ccccc4)CC3)CC2)sc1C(=O)c1c(F)cccc1F [Example R90]	–	–	–	–	HCT-116 % Inhibition at 0.1 μM (HCT-116 cell line): 0%; HCT-116 5 Inhibition at 0.25 μM (HCT-116 cell line): 19; CDK2 % Inhibition at 0.03 μM (CDK2/Cyclin A): −2%; CDK4 % Inhibition at 0.03 μM ([1]; at 0.03 μM): −6%
Cc1cc(C)cc(C(=O)N2CCC(Nc3nc(N)c(C(=O)c4c(F)cccc4F)s3)CC2)c1 [Example D14, {4-Amino-2-[1-(3,5-dimethyl-benzoyl)-piperidin-4-ylamino]-thiazol-5-yl}-(2,6-difluoro-phenyl)-methanone]	14	41	120	19	–
CN1CCN(c2ncc(S(=O)(=O)N3CCC(Nc4nc(N)c(C(=O)c5c(F)cccc5F)s4)CC3)cn2)CC1 [Example G34, (4-Amino-2-{1-[2-(4-methyl-piperazin-1-yl)-pyrimindine-5-sulfonyl]-piperidin-4-ylamino}-thiazol-5-yl)-(2,6-difluoro-phenyl)-methanone Hydrochloride Salt]	40	250	0.82	0.57	–
Nc1nc(NC2CCN(S(=O)(=O)CCCN3CCCCC3)CC2)sc1C(=O)c1c(F)cccc1F [Example K7, 1-(4-Amino-2-{1-[3-(piperidin-1-yl)propane-1-sulfonyl]-piperidin-4-ylamino}-thiazol-5-yl)-1-(2,6-difluoro-phenyl)-methanone.]	210	1700	2	2.9	–

From patent US20050101595A1, “N-containing cycloalkyl-substituted amino-thiazole derivatives and pharmaceutical compositions for inhibiting cell proliferation and methods for their use” (PFIZER INC., priority 2003, published 2005)
